PubChem BioAssay (NCI)
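Five compound concentrations were applied to cells in 96-well plates for 48 hours; endpoints were derived by simple linear interpolation of the resulting dose-response curve. GI50 is the concentration that inhibits growth by half. TGI denotes the concentration required for complete inhibition of growth.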

Assays:
Test in all cases: growth of human tumour cells (NCI), 48 h
A549 NSCLC = test system: A549 NSCLC
MALME-3M melanoma = test system: MALME-3M melanoma
UO-31 renal = test system: UO-31 renal
HCT-15 colon = test system: HCT-15 colon
786-0 renal = test system: 786-0 renal
K-562 leukemia = test system: K-562 leukemia
HCT-116 colon = test system: HCT-116 colon
HOP-92 NSCLC = test system: HOP-92 NSCLC
KM12 colon = test system: KM12 colon
SNB-75 CNS = test system: SNB-75 CNS
CAKI-1 renal = test system: CAKI-1 renal
NCI-H23 lung = test system: NCI-H23 lung
HT29 colon = test system: HT29 colon
EKVX NSCLC = test system: EKVX NSCLC
LOX IMVI melanoma = test system: LOX IMVI melanoma
SNB-19 CNS = test system: SNB-19 CNS
OVCAR-8 ovarian = test system: OVCAR-8 ovarian
PC-3 prostate = test system: PC-3 prostate
DU-145 prostate = test system: DU-145 prostate
MOLT-4 leukemia = test system: MOLT-4 leukemia
SK-MEL-2 melanoma = test system: SK-MEL-2 melanoma
SK-OV-3 ovarian = test system: SK-OV-3 ovarian
RXF 393 renal = test system: RXF 393 renal
NCI/ADR-RES ovarian = test system: NCI/ADR-RES ovarian
NCI-H522 lung = test system: NCI-H522 lung
SW-620 colon = test system: SW-620 colon
OVCAR-4 ovarian = test system: OVCAR-4 ovarian
IGROV1 ovarian = test system: IGROV1 ovarian
SF-268 CNS = test system: SF-268 CNS
OVCAR-3 ovarian = test system: OVCAR-3 ovarian
HS 578T breast = test system: HS 578T breast
HOP-62 NSCLC = test system: HOP-62 NSCLC
HL-60(TB) leukemia = test system: HL-60(TB) leukemia
NCI-H226 lung = test system: NCI-H226 lung
TK-10 renal = test system: TK-10 renal
SK-MEL-28 melanoma = test system: SK-MEL-28 melanoma
UACC-257 melanoma = test system: UACC-257 melanoma
CCRF-CEM leukemia = test system: CCRF-CEM leukemia
COLO 205 colon = test system: COLO 205 colon
SK-MEL-5 melanoma = test system: SK-MEL-5 melanoma
A498 renal = test system: A498 renal
T-47D breast = test system: T-47D breast
SF-539 CNS = test system: SF-539 CNS
NCI-H460 lung = test system: NCI-H460 lung
SN12C renal = test system: SN12C renal
UACC-62 melanoma = test system: UACC-62 melanoma
SF-295 CNS = test system: SF-295 CNS
U251 CNS = test system: U251 CNS
BT-549 breast = test system: BT-549 breast
MDA-MB-231 breast = test system: MDA-MB-231 breast
MDA-MB-435 = test system: MDA-MB-435
ACHN renal = test system: ACHN renal
M14 melanoma = test system: M14 melanoma
RPMI-8226 leukemia = test system: RPMI-8226 leukemia
OVCAR-5 ovarian = test system: OVCAR-5 ovarian
HCC-2998 colon = test system: HCC-2998 colon
SR leukemia = test system: SR leukemia
MCF7 breast = test system: MCF7 breast

O=C(NC(=S)Nc1cc(Cl)ccc1O)c1cccc(Br)c1
GI50 (A549 NSCLC): 6.19 µM
TGI (A549 NSCLC): > 100 µM
GI50 (MALME-3M melanoma): 9.33 µM
TGI (MALME-3M melanoma): 55.4 µM
GI50 (UO-31 renal): 6.12 µM
TGI (UO-31 renal): 56.3 µM
GI50 (HCT-15 colon): 4.78 µM
TGI (HCT-15 colon): > 100 µM
GI50 (786-0 renal): 38 µM
TGI (786-0 renal): > 100 µM
GI50 (K-562 leukemia): 4.94 µM
TGI (K-562 leukemia): > 100 µM
GI50 (HCT-116 colon): 10.8 µM
TGI (HCT-116 colon): > 100 µM
GI50 (HOP-92 NSCLC): 10.5 µM
TGI (HOP-92 NSCLC): 59.2 µM
GI50 (KM12 colon): 5.78 µM
TGI (KM12 colon): > 100 µM
GI50 (SNB-75 CNS): 11.8 µM
TGI (SNB-75 CNS): 75.8 µM
GI50 (CAKI-1 renal): 4.34 µM
TGI (CAKI-1 renal): > 100 µM
GI50 (NCI-H23 lung): 7.93 µM
TGI (NCI-H23 lung): > 100 µM
GI50 (HT29 colon): 69.3 µM
TGI (HT29 colon): > 100 µM
GI50 (EKVX NSCLC): 17.1 µM
TGI (EKVX NSCLC): > 100 µM
GI50 (LOX IMVI melanoma): 15.8 µM
TGI (LOX IMVI melanoma): > 100 µM
GI50 (SNB-19 CNS): 8.78 µM
TGI (SNB-19 CNS): > 100 µM
GI50 (OVCAR-8 ovarian): 6.54 µM
TGI (OVCAR-8 ovarian): > 100 µM
GI50 (PC-3 prostate): 6.78 µM
TGI (PC-3 prostate): > 100 µM
GI50 (DU-145 prostate): 12.3 µM
TGI (DU-145 prostate): > 100 µM
GI50 (MOLT-4 leukemia): 4.47 µM
TGI (MOLT-4 leukemia): > 100 µM
GI50 (SK-MEL-2 melanoma): 12.1 µM
TGI (SK-MEL-2 melanoma): > 100 µM
GI50 (SK-OV-3 ovarian): 19.4 µM
TGI (SK-OV-3 ovarian): > 100 µM
GI50 (RXF 393 renal): 18.7 µM
TGI (RXF 393 renal): 92.3 µM
GI50 (NCI/ADR-RES ovarian): 5.77 µM
TGI (NCI/ADR-RES ovarian): 98 µM
GI50 (NCI-H522 lung): 6.65 µM
TGI (NCI-H522 lung): > 100 µM
GI50 (SW-620 colon): 4.77 µM
TGI (SW-620 colon): > 100 µM
GI50 (OVCAR-4 ovarian): 4.7 µM
TGI (OVCAR-4 ovarian): > 100 µM
GI50 (IGROV1 ovarian): 9.67 µM
TGI (IGROV1 ovarian): > 100 µM
GI50 (SF-268 CNS): 7.83 µM
TGI (SF-268 CNS): > 100 µM
GI50 (OVCAR-3 ovarian): 4.72 µM
TGI (OVCAR-3 ovarian): 24.9 µM
GI50 (HS 578T breast): 6.85 µM
TGI (HS 578T breast): 41 µM
GI50 (HOP-62 NSCLC): 7.46 µM
TGI (HOP-62 NSCLC): > 100 µM
GI50 (HL-60(TB) leukemia): 7.12 µM
TGI (HL-60(TB) leukemia): > 100 µM
GI50 (NCI-H226 lung): 28.6 µM
TGI (NCI-H226 lung): > 100 µM
GI50 (TK-10 renal): 17.1 µM
TGI (TK-10 renal): 78.9 µM
GI50 (SK-MEL-28 melanoma): 16.5 µM
TGI (SK-MEL-28 melanoma): > 100 µM
GI50 (UACC-257 melanoma): 15.3 µM
TGI (UACC-257 melanoma): > 100 µM
GI50 (CCRF-CEM leukemia): 3.68 µM
TGI (CCRF-CEM leukemia): > 100 µM
GI50 (COLO 205 colon): 34.1 µM
TGI (COLO 205 colon): > 100 µM
GI50 (SK-MEL-5 melanoma): 6.21 µM
TGI (SK-MEL-5 melanoma): > 100 µM
GI50 (A498 renal): 4.8 µM
TGI (A498 renal): 51.9 µM
GI50 (T-47D breast): 3.71 µM
TGI (T-47D breast): > 100 µM
GI50 (SF-539 CNS): 7.58 µM
TGI (SF-539 CNS): 35.8 µM
GI50 (NCI-H460 lung): 4.42 µM
TGI (NCI-H460 lung): > 100 µM
GI50 (SN12C renal): 12.5 µM
TGI (SN12C renal): > 100 µM
GI50 (UACC-62 melanoma): 6.24 µM
TGI (UACC-62 melanoma): > 100 µM
GI50 (SF-295 CNS): 3.59 µM
TGI (SF-295 CNS): 24.9 µM
GI50 (U251 CNS): 3.95 µM
TGI (U251 CNS): > 100 µM
GI50 (BT-549 breast): 62.9 µM
TGI (BT-549 breast): > 100 µM
GI50 (MDA-MB-231 breast): 17 µM
TGI (MDA-MB-231 breast): > 100 µM
GI50 (MDA-MB-435): 13.9 µM
TGI (MDA-MB-435): > 100 µM
GI50 (ACHN renal): 6.85 µM
TGI (ACHN renal): > 100 µM
GI50 (M14 melanoma): 26.3 µM
TGI (M14 melanoma): > 100 µM
GI50 (RPMI-8226 leukemia): 4.15 µM
TGI (RPMI-8226 leukemia): > 100 µM
GI50 (OVCAR-5 ovarian): 57.1 µM
TGI (OVCAR-5 ovarian): > 100 µM
GI50 (HCC-2998 colon): 13.6 µM
TGI (HCC-2998 colon): > 100 µM
GI50 (SR leukemia): 7.34 µM
TGI (SR leukemia): > 100 µM
GI50 (MCF7 breast): 2110 nM
TGI (MCF7 breast): > 100 µM
